{
  "source": "patent EP0944596B1",
  "about": "“1-ACRYLOYLINDOLINE DERIVATIVES AND THEIR USE AS PRODRUGS OF ANTICANCER AGENTS” (Auckland Uniservices Limited, priority 1996, dated 1998)",
  "key": {"[1]": {"details": "background statement, literature; cited from earlier work"}, "[2]": {"tested_on": "UV4 cells", "test": "Activation by E. coli nitroreductase 2 (NR2): growth inhibition of UV4 cells with purified enzyme and NADH added", "assay_type": "cell-based", "details": "for IC50: Cricetulus griseus, UV4 cells, purified E. coli nitroreductase enzyme (1 µg/mL) and NADH (1 mM) during the entire incubation, read-out: IC50 (nM) drug + NADH + NR2; for Ratio*: IC50 drug alone/IC50 drug + NADH + NR2, intra-experiment ratios, 1080 min", "description": "(§1) To evaluate the activity of a compound UV4 cells were maintained in exponential phase growth (doubling times 14 and 15 h respectively) using Alpha MEM containing fetal calf serum (10% v/v) without antibiotics, and were subcultured twice weekly by trypsinization. Bulk cultures were prepared for experiments by seeding cells in spinner flasks at 10^4 cells/mL in the above medium with addition of penicillin (100 IU/mL) and streptomycin (100 µg/mL). Cultures were initiated in 96-well microtiter trays to give 200 (AA8) or 300 (UV4) cells in 0.05 mL per well. After growth in a CO2 incubator for 24 h, drugs were added in culture medium, using serial two-fold dilutions to provide duplicate cultures at five different concentrations for each of eight drugs (plus eight controls) per tray. After 18 h drugs were removed by washing cultures three times with fresh medium, and the trays were incubated for a further 78 h. Cell density was then determined by staining with metbylene blue as described [Finlay, G.J.; Baguley, B.C.; Wilson, W.R. Anal. Biochem., 1984, 139: 272-277]. The IC50 was calculated as the drug concentration providing 50% inhibition of growth relative to the controls.\n(§2) To evaluate the activation of the compound by E. coli nitroreductase 2 (NR2) the experiment was repeated but in addition purified E. coli nitroreductase enzyme (1 µg/mL) and NADH (1 mM, as cofactor) was added during the entire time of the incubation. As a comparison the experiment was also repeated but with the addition only of NADH and not NR2.\n(§3) Where multiple determinations were carried out the IC50 is given as an average ± SEM. Where one determination only was carried out a single IC50 value is given."}, "[3]": {"tested_on": "UV4 cells", "test": "Growth inhibition (cytotoxicity) of UV4 cells, 18 h drug exposure, methylene blue staining", "assay_type": "cell-based", "details": "Cricetulus griseus", "description": "as §1, §2, §3"}, "[4]": {"details": "18 h exposure, then 78 h further incubation, average ± SEM where multiple determinations, read-out: IC50 (nM) drug alone"}, "[5]": {"details": "NADH (1 mM) added, no NR2, 18 h exposure, read-out: IC50 (nM) drug + NADH"}},
  "data": [
    {"compound": "COc1c(O)c2c(c3cc(C(=O)N4CCc5c4c(O)c(OC)c4[nH]c(C(=O)N6CC7CC78C6=CC(=O)c6[nH]cc(C)c68)cc54)[nH]c13)CCN2C(N)=O", "note": "(stereo not drawn) [CC-1065]", "values": [
      {"measurement": "IC50", "setting": "[1]", "result": "low pM range"}
    ]},
    {"compound": "CCCC(=O)Nc1cc(/C=C/C(=O)N2CC(CCl)c3ccc([N+](=O)[O-])cc32)n(C)c1", "note": "(stereo not drawn) [Compound 7, 1-[(E)-3-(4-butyramido-1-methyl-2-pyrrole)acryloyl]-3-(chloromethyl)-6-nitroindoline]", "values": [
      {"measurement": "IC50", "setting": "[2]", "result": "43 ± 4", "unit": "nM"},
      {"measurement": "Ratio*", "setting": "[2]", "result": "70±13"},
      {"measurement": "IC50", "setting": "[3]; [4]", "result": "2940 ± 320", "unit": "nM"},
      {"measurement": "IC50", "setting": "[3]; [5]", "result": "1080 ± 340", "unit": "nM"}
    ]},
    {"compound": "CCCC(=O)Nc1cc(/C=C/C(=O)N2CC(CCl)c3ccc(N)cc32)n(C)c1", "note": "(stereo not drawn) [Compound 8, 6-amino-1-[(E)-3-(4-butyramido-1-methyl-2-pyrrole)acryloyl]-3-(chloromethyl)indoline]", "values": [
      {"measurement": "IC50", "setting": "[2]", "result": 35, "unit": "nM"},
      {"measurement": "Ratio*", "setting": "[2]", "result": 1.1},
      {"measurement": "IC50", "setting": "[3]; [4]", "result": 38, "unit": "nM"},
      {"measurement": "IC50", "setting": "[3]; [5]", "result": 24, "unit": "nM"}
    ]},
    {"compound": "Cn1cccc1C(=O)Nc1cccc(/C=C/C(=O)N2CC(CCl)c3ccc([N+](=O)[O-])cc32)c1", "note": "(stereo not drawn) [Compound 12, 1-[(E)-3-(1-methylpyrrole-2-carboxamido)cinnamoyl]-3-chloromethyl-6-nitroindoline]", "values": [
      {"measurement": "Ratio*", "setting": "[2]", "result": "ca. 30"},
      {"measurement": "IC50", "setting": "[3]; [4]", "result": "~5000", "unit": "nM"}
    ]},
    {"compound": "CC(=O)Nc1cccc(/C=C/C(=O)N2CC(CCl)c3ccc([N+](=O)[O-])cc32)c1", "note": "(stereo not drawn) [Compound 13, 1-[(E)-3-(acetylamino)cinnamoyl]-3-chloromethyl-6-nitroindoline]", "values": [
      {"measurement": "IC50", "setting": "[2]", "result": "74 ± 23", "unit": "nM"},
      {"measurement": "Ratio*", "setting": "[2]", "result": 3.5},
      {"measurement": "IC50", "setting": "[3]; [4]", "result": 335, "unit": "nM"},
      {"measurement": "IC50", "setting": "[3]; [5]", "result": 339, "unit": "nM"}
    ]}
  ]
}
